Experiments:
Format in all cases: in vivo
[1] = tested on: male BALB/c mice; assay: EEG amplitude and frequency in caffeine-treated mice (Example 1); settings: caffeine 7.5 mg/kg, compositions in combination with caffeine
Experimental: (§1) Five male BALB/c mice per treatment arm (age: 8 weeks; weight: […]) were housed in a controlled environment with a 12:12-h light-dark cycle at 22° C. and were provided with mice chow and water ad libitum. The mice were fasted for 24 hours prior to the study, which was conducted between 1 pm and 5 pm and under the National Institutes of Health's Guidelines for the Care and Use of Laboratory Animals and approved by the Ethics Committee of the Medipol University. The mice were divided into eight groups and anesthetized with urethane (1.25 g/kg, i.p.; Sigma U2500) and carefully placed in a stereotaxic frame. Rectal temperatures were maintained between 36.5° C. and 37.0° C. using a feedback-controlled-heating system (507221F, Harvard Apparatus, ABD). Lidocaine (2.0%) was applied on the incision area to prevent any occurrence of pain. A midline incision was made on the skin along the sagittal suture of the skull. A part of the cranium overlying the left parietal cortex was removed using a dental drill. […]
(§2) After the administration, the mice were placed in individual cages and subjected to measurements of sleep latency and duration. Brain electrical activity were monitored and recorded for a total of 2 hours. […]

[2] = tested on: GABAB receptor 1; assay: Western blot of brain GABAB receptor 1 in caffeine-treated mice (Example 1); settings: FIG. 1B, male BALB/c mice brain, reduced from 100%, caffeine 7.5 mg/kg i.p., combos given together with caffeine, after two hours
Experimental: as §1, with “drill. Ag—AgCl ball electrodes were placed on the left somatomotor cortex (1 mm anterior/1.5 mm lateral from bregma; 3 mm posterior/1.5 mm lateral from bregma) and the reference electrode was attached to the left foot for an ECoG recording. Group 1 were treated with saline. To induce sleep disturbance, 7.5 mg/kg caffeine was injected intraperitoneally at minute 15 of recordings to groups 2-8.” for “drill.”

[3] = tested on: male mice; assay: Serum melatonin by ELISA in male mice (Example 3); settings: FIG. 3, saline control about 33 pg/ml, caffeine 7.5 mg/kg, composition given with caffeine
Experimental: (§3) Both OVX female mice and male mice were divided into three groups: group treated with saline, group treated with 7.5 mg/kg caffeine, and group treated with a combination of 7.5 mg/kg caffeine and the magnesium glycinate, L-theanine, GABA, SAMe and propyl gallate composition. […] Levels of serum melatonin were measured by ELISA kits.

[4] = tested on: GluN2A; assay: Western blot of brain GluN2A in caffeine-treated mice (Example 1); settings: FIG. 1F, male BALB/c mice brain, reduced from 100%, caffeine 7.5 mg/kg i.p., combos given together with caffeine, after two hours
Experimental: as §1, with “drill. Ag—AgCl ball electrodes were placed on the left somatomotor cortex (1 mm anterior/1.5 mm lateral from bregma; 3 mm posterior/1.5 mm lateral from bregma) and the reference electrode was attached to the left foot for an ECoG recording. Group 1 were treated with saline. To induce sleep disturbance, 7.5 mg/kg caffeine was injected intraperitoneally at minute 15 of recordings to groups 2-8.” for “drill.”

[5] = tested on: OVX female mice; assay: Serum melatonin by ELISA in OVX female mice (Example 3); settings: FIG. 3, saline control about 11 pg/ml, caffeine 7.5 mg/kg, composition given with caffeine
Experimental: as §3

[6] = tested on: 5-HT1A; assay: Western blot of brain 5-HT1A in caffeine-treated mice (Example 1); settings: FIG. 1G, male BALB/c mice brain, reduced from 100%, caffeine 7.5 mg/kg i.p., combos given together with caffeine, after two hours
Experimental: as §1, with “drill. Ag—AgCl ball electrodes were placed on the left somatomotor cortex (1 mm anterior/1.5 mm lateral from bregma; 3 mm posterior/1.5 mm lateral from bregma) and the reference electrode was attached to the left foot for an ECoG recording. Group 1 were treated with saline. To induce sleep disturbance, 7.5 mg/kg caffeine was injected intraperitoneally at minute 15 of recordings to groups 2-8.” for “drill.”

[7] = tested on: GABAB receptor 2; assay: Western blot of brain GABAB receptor 2 in caffeine-treated mice (Example 1); settings: FIG. 1C, male BALB/c mice brain, reduced from 100%, caffeine 7.5 mg/kg i.p., combos given together with caffeine, after two hours
Experimental: as §1, with “drill. Ag—AgCl ball electrodes were placed on the left somatomotor cortex (1 mm anterior/1.5 mm lateral from bregma; 3 mm posterior/1.5 mm lateral from bregma) and the reference electrode was attached to the left foot for an ECoG recording. Group 1 were treated with saline. To induce sleep disturbance, 7.5 mg/kg caffeine was injected intraperitoneally at minute 15 of recordings to groups 2-8.” for “drill.”

[8] = tested on: GluA1; assay: Western blot of brain GluA1 in caffeine-treated mice (Example 1); settings: FIG. 1D, male BALB/c mice brain, reduced from 100%, caffeine 7.5 mg/kg i.p., combos given together with caffeine, after two hours
Experimental: as §1, with “drill. Ag—AgCl ball electrodes were placed on the left somatomotor cortex (1 mm anterior/1.5 mm lateral from bregma; 3 mm posterior/1.5 mm lateral from bregma) and the reference electrode was attached to the left foot for an ECoG recording. Group 1 were treated with saline. To induce sleep disturbance, 7.5 mg/kg caffeine was injected intraperitoneally at minute 15 of recordings to groups 2-8.” for “drill.”

[9] = tested on: GABAA receptor 2; assay: Western blot of brain GABAA receptor 2 in caffeine-treated mice (Example 1); settings: FIG. 1A, male BALB/c mice brain, reduced from 100%, caffeine 7.5 mg/kg i.p., combos given together with caffeine, after two hours
Experimental: as §1, with “drill. Ag—AgCl ball electrodes were placed on the left somatomotor cortex (1 mm anterior/1.5 mm lateral from bregma; 3 mm posterior/1.5 mm lateral from bregma) and the reference electrode was attached to the left foot for an ECoG recording. Group 1 were treated with saline. To induce sleep disturbance, 7.5 mg/kg caffeine was injected intraperitoneally at minute 15 of recordings to groups 2-8.” for “drill.”

[10] = tested on: GluN1; assay: Western blot of brain GluN1 in caffeine-treated mice (Example 1); settings: FIG. 1E, male BALB/c mice brain, reduced from 100%, caffeine 7.5 mg/kg i.p., combos given together with caffeine, after two hours
Experimental: as §1, with “drill. Ag—AgCl ball electrodes were placed on the left somatomotor cortex (1 mm anterior/1.5 mm lateral from bregma; 3 mm posterior/1.5 mm lateral from bregma) and the reference electrode was attached to the left foot for an ECoG recording. Group 1 were treated with saline. To induce sleep disturbance, 7.5 mg/kg caffeine was injected intraperitoneally at minute 15 of recordings to groups 2-8.” for “drill.”

[11] = tested on: male BALB/c mice; assay: Sleep duration and sleep latency in mice (Example 1); settings: pentobarbital 42 mg/kg, combos together with caffeine
Experimental: as §1, §2

Cn1c(=O)c2c(ncn2C)n(C)c1=O [caffeine]
EEG amplitude ([1]; FIG. 1H, from about 100 mV, within 75 minutes): about 70 mV
EEG frequency ([1]; FIG. 1I, from about 100 spikes, in 90 minutes): about 200 spikes
percentage of GABAB receptor 1 [2]: about 18%
melatonin level [3]: about 12 pg/ml
percentage of GluN2A receptor [4]: about 20%
melatonin level [5]: about 8 pg/ml
percentage of 5-HT1A receptor [6]: about 20%
percentage of GABAB receptor 2 [7]: about 28%
percentage of GluA1 receptor [8]: about 26%
percentage of GABAA receptor 2 [9]: about 25%
percentage of GluN1 receptor [10]: about 35%

CCCC(C)C1(CC)C(=O)NC(=O)NC1=O (stereo not shown) [pentobarbital]
sleep duration ([11]; FIG. 1J): about 50 minutes
sleep latency ([11]; FIG. 1K): about 2 minutes
